Reference: ChEMBL document CHEMBL4842346, “Improving the metabolic stability of antifungal compounds based on a scaffold hopping strategy: Design, synthesis, and structure-activity relationship studies of dihydrooxazole derivatives” (Eur J Med Chem, 2021)
In brackets after ≈: the same amount, converted by molar mass.

Assays:
Format in all cases: functional
Candida tropicalis = assay: Antifungal activity against Candida tropicalis GIM2.183 assessed as inhibition of fungal growth by NCCLS protocol based method
Cryptococcus neoformans = assay: Antifungal activity against Cryptococcus neoformans GIM2.209 assessed as inhibition of fungal growth by NCCLS protocol based method
Candida albicans [1] = assay: Antifungal activity against Candida albicans SC5314 assessed as inhibition of fungal growth by NCCLS protocol based method
Aspergillus fumigatus = assay: Antifungal activity against Aspergillus fumigatus CGMCC3.7795 assessed as inhibition of fungal growth by NCCLS protocol based method
Candida albicans [2] = assay: Antifungal activity against Candida albicans GIM2.194 assessed as inhibition of fungal growth by NCCLS protocol based method
Pichia kudriavzevii = assay: Antifungal activity against Candida krusei GIM2.1 assessed as inhibition of fungal growth by NCCLS protocol based method
Candida parapsilosis = assay: Antifungal activity against Candida parapsilosis GIM2.190 assessed as inhibition of fungal growth by NCCLS protocol based method; settings: Lodderomyces parapsilosis

SMILES	MIC (Candida tropicalis) [µg/mL]	MIC (Cryptococcus neoformans) [µg/mL]	MIC (Candida albicans [1]) [µg/mL]	MIC (Aspergillus fumigatus) [µg/mL]	MIC (Candida albicans [2]) [µg/mL]	MIC (Pichia kudriavzevii) [µg/mL]	MIC (Candida parapsilosis) [µg/mL]
C[C@H]1OC(c2ccc(-c3ccccc3)cc2)=N[C@H]1Cn1ccnc1	4 (≈ 12.6 µM)	> 64	> 64	> 64	> 64	–	–
Clc1ccc(-c2ccc(C3=NC(Cn4cncn4)(c4ccccc4)CO3)cc2)cc1 (configuration not stated)	> 16	–	> 16	> 64	> 16	> 64	> 64
FC(F)(F)Oc1ccc(-c2ccc(C3=NC(Cn4cncn4)(c4ccccc4)CO3)cc2)cc1 (configuration not stated)	> 16	–	> 16	> 64	> 16	> 64	> 64
Fc1cc(C2=NC(Cn3cncn3)(c3ccccc3)CO2)ccc1-c1ccccc1 (configuration not stated)	0.06 (≈ 0.151 µM)	–	< 0.03	> 64	< 0.03	0.5 (≈ 1.25 µM)	4 (≈ 10 µM)
Fc1cccc(-c2ccc(C3=NC(Cn4cncn4)(c4cc(F)cc(F)c4)CO3)cc2)c1 (configuration not stated)	> 16	–	0.06 (≈ 0.138 µM)	> 64	> 16	> 64	> 64
N#Cc1ccc(-c2ccc(C3=NC(Cn4cncn4)(c4ccccc4)CO3)cc2)cc1 (configuration not stated)	> 16	–	> 16	> 64	> 16	> 64	> 64
Fc1cc(-c2ccccc2)ccc1C1=NC(Cn2cncn2)(c2ccccc2)CO1 (configuration not stated)	0.06 (≈ 0.151 µM)	–	< 0.03	> 64	0.06 (≈ 0.151 µM)	> 64	16 (≈ 40.2 µM)
Fc1ccccc1-c1ccc(C2=NC(Cn3cncn3)(c3ccccc3)CO2)cc1 (configuration not stated)	0.06 (≈ 0.151 µM)	–	< 0.03	> 64	< 0.03	0.5 (≈ 1.25 µM)	16 (≈ 40.2 µM)
Fc1cc(F)cc(C2(Cn3cncn3)COC(c3ccc(-c4ccccc4F)cc3)=N2)c1 (configuration not stated)	> 16	–	0.06 (≈ 0.138 µM)	> 64	> 16	> 64	> 64
FC(F)(F)c1ccc(-c2ccc(C3=NC(Cn4cncn4)(c4ccccc4)CO3)cc2)cc1 (configuration not stated)	> 16	–	> 16	> 64	> 16	> 64	> 64
c1ccc(-c2ccc(C3=NC(Cn4cncn4)(c4ccccc4)CO3)cc2)cc1 (configuration not stated)	0.06 (≈ 0.158 µM)	–	< 0.03	2 (≈ 5.26 µM)	< 0.03	0.25 (≈ 0.657 µM)	0.25 (≈ 0.657 µM)
Clc1cccc(-c2ccc(C3=NC(Cn4cncn4)(c4ccccc4)CO3)cc2)c1 (configuration not stated)	> 16	–	> 16	> 64	> 16	> 64	> 64

Other lines, results leading:

MIC (Candida tropicalis) [µg/mL]	MIC (Cryptococcus neoformans) [µg/mL]	MIC (Candida albicans [1]) [µg/mL]	MIC (Aspergillus fumigatus) [µg/mL]	MIC (Candida albicans [2]) [µg/mL]	MIC (Pichia kudriavzevii) [µg/mL]	MIC (Candida parapsilosis) [µg/mL]	SMILES
8 (≈ 20.1 µM)	–	0.25 (≈ 0.627 µM)	> 64	> 16	> 64	> 64	Fc1ccc(-c2ccc(C3=NC(Cn4cncn4)(c4ccccc4)CO3)cc2)cc1 (configuration not stated)
> 16	–	> 16	> 64	> 16	> 64	> 64	Clc1ccccc1-c1ccc(C2=NC(Cn3cncn3)(c3ccccc3)CO2)cc1 (configuration not stated)
> 16	–	0.06 (≈ 0.139 µM)	> 64	> 16	> 64	> 64	Fc1ccccc1-c1ccc(C2=NC(Cn3cncn3)(c3cccc(Cl)c3)CO2)cc1 (configuration not stated)
> 16	–	> 16	> 64	> 16	> 64	> 64	Fc1cc(F)cc(-c2ccc(C3=NC(Cn4cncn4)(c4ccccc4)CO3)cc2)c1 (configuration not stated)
0.06 (≈ 0.151 µM)	–	< 0.03	> 64	< 0.03	< 0.125	16 (≈ 40.2 µM)	Fc1cccc(-c2ccc(C3=NC(Cn4cncn4)(c4ccccc4)CO3)cc2)c1 (configuration not stated)
> 16	–	> 16	> 64	> 16	> 64	> 64	c1ccc(-c2ccc(C3=NC(Cn4cnnn4)(c4ccccc4)CO3)cc2)cc1 (configuration not stated)
